Test system: 996289-038-R-J1-PDC complex spheroid viability
Experiment: Anticancer human tumor 996289-038-R-J1-PDC patient-derived colon adenocarcinoma cell line growth inhibition [CLK]
Conditions: for IC50: curve of first compound; for viability, T/C: stronger effect = lower value
How it was run: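 Multi-cell-type spheroids combined patient-derived tumor cells with HUVEC endothelial cells and human mesenchymal stem cells. Paired agents were dosed in half-log steps down from about clinical Cmax, or from 10 microM where Cmax was unknown.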

[1] = second compound 0.0316 µM, first compound 0.0316 µM
[2] = second compound 0.0316 µM, first compound 0.1 µM
[3] = second compound 0.1 µM, first compound 0.0316 µM
[4] = second compound 0.1 µM, first compound 0.1 µM
[5] = second compound 0.316 µM, first compound 0.0316 µM
[6] = second compound 0.316 µM, first compound 0.1 µM
[7] = second compound 1 µM, first compound 0.0316 µM
[8] = second compound 1 µM, first compound 0.1 µM
[9] = second compound 3.16 µM, first compound 0.0316 µM
[10] = second compound 3.16 µM, first compound 0.1 µM
[11] = second compound 10 µM, first compound 0.0316 µM
[12] = second compound 10 µM, first compound 0.1 µM
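Note: spheroids exposed to the agents for 7 days before readout.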

`Cn1ncnc1[C@H]1c2n[nH]c(=O)c3cc(F)cc(c23)N[C@@H]1c1ccc(F)cc1` + CNC(=O)c1ccc(Nc2nc(OC3CCCC3)c3c(-c4ccc5nc(C)oc5c4)c[nH]c3n2)c(OC)c1 showed an IC50 (second compound 0.0316 µM) of over 100 nM, an IC50 (second compound 0.1 µM) of over 100 nM and an IC50 (second compound 0.316 µM) of over 100 nM. For the same compound, the IC50 (second compound 1 µM) was over 100 nM, the IC50 (second compound 3.16 µM) was over 100 nM and the IC50 (second compound 10 µM) was over 100 nM. For the same compound, the viability, T/C (second compound 0.0316 µM, first compound 0.000316 µM) was 127%, the viability, T/C (second compound 0.0316 µM, first compound 0.001 µM) was 114% and the viability, T/C (second compound 0.0316 µM, first compound 0.00316 µM) was 118%. The viability, T/C (second compound 0.0316 µM, first compound 0.01 µM) was 124%, the viability, T/C [1] was 133% and the viability, T/C [2] was 108%. The viability, T/C (second compound 0.1 µM, first compound 0.000316 µM) was 127%, the viability, T/C (second compound 0.1 µM, first compound 0.001 µM) was 124% and the viability, T/C (second compound 0.1 µM, first compound 0.00316 µM) was 128%. For the same compound, the viability, T/C (second compound 0.1 µM, first compound 0.01 µM) was 134%, the viability, T/C [3] was 124% and the viability, T/C [4] was 105%. It also gave a viability, T/C (second compound 0.316 µM, first compound 0.000316 µM) of 86.6%, a viability, T/C (second compound 0.316 µM, first compound 0.001 µM) of 80.5% and a viability, T/C (second compound 0.316 µM, first compound 0.00316 µM) of 81.6%. It also gave a viability, T/C (second compound 0.316 µM, first compound 0.01 µM) of 78.8%, a viability, T/C [5] of 80.9% and a viability, T/C [6] of 74.9%. It also gave a viability, T/C (second compound 1 µM, first compound 0.000316 µM) of 74.8%, a viability, T/C (second compound 1 µM, first compound 0.001 µM) of 67.4% and a viability, T/C (second compound 1 µM, first compound 0.00316 µM) of 65.7%. For the same compound, the viability, T/C (second compound 1 µM, first compound 0.01 µM) was 64%, the viability, T/C [7] was 65.5% and the viability, T/C [8] was 58.6%. The viability, T/C (second compound 3.16 µM, first compound 0.000316 µM) was 63.7%, the viability, T/C (second compound 3.16 µM, first compound 0.001 µM) was 59.3% and the viability, T/C (second compound 3.16 µM, first compound 0.00316 µM) was 59%. The viability, T/C (second compound 3.16 µM, first compound 0.01 µM) was 58.5%, the viability, T/C [9] was 63.7% and the viability, T/C [10] was 55%. The viability, T/C (second compound 10 µM, first compound 0.000316 µM) was 66.1%, the viability, T/C (second compound 10 µM, first compound 0.001 µM) was 60.4% and the viability, T/C (second compound 10 µM, first compound 0.00316 µM) was 59.7%. The viability, T/C (second compound 10 µM, first compound 0.01 µM) was 63%, the viability, T/C [11] was 63% and the viability, T/C [12] was 55.7%.

With `Nc1ccccc1NC(=O)c1ccc(CNC(=O)OCc2cccnc2)cc1` + CN1CCN(c2cc(C(=O)Nc3cc4cc(-c5cnn(C)c5)ccc4cn3)ccn2)CC1 the IC50 (second compound 0.0316 µM) was 6350 nM, the IC50 (second compound 0.1 µM) was 5030 nM and the IC50 (second compound 0.316 µM) was 2330 nM. It also gave an IC50 (second compound 1 µM) of under 31.6 nM, an IC50 (second compound 3.16 µM) of under 31.6 nM and an IC50 (second compound 10 µM) of under 31.6 nM. For the same compound, the viability, T/C [1] was 99.7%, the viability, T/C [2] was 103% and the viability, T/C (second compound 0.0316 µM, first compound 0.316 µM) was 91.4%. The viability, T/C (second compound 0.0316 µM, first compound 1 µM) was 81.7%, the viability, T/C (second compound 0.0316 µM, first compound 3.16 µM) was 61.8% and the viability, T/C (second compound 0.0316 µM, first compound 10 µM) was 42.3%. The viability, T/C [3] was 110%, the viability, T/C [4] was 88.1% and the viability, T/C (second compound 0.1 µM, first compound 0.316 µM) was 83.7%. For the same compound, the viability, T/C (second compound 0.1 µM, first compound 1 µM) was 71.1%, the viability, T/C (second compound 0.1 µM, first compound 3.16 µM) was 60% and the viability, T/C (second compound 0.1 µM, first compound 10 µM) was 38.3%. It also gave a viability, T/C [5] of 70.1%, a viability, T/C [6] of 64.8% and a viability, T/C (second compound 0.316 µM, first compound 0.316 µM) of 64.3%. It also gave a viability, T/C (second compound 0.316 µM, first compound 1 µM) of 60.4%, a viability, T/C (second compound 0.316 µM, first compound 3.16 µM) of 46.4% and a viability, T/C (second compound 0.316 µM, first compound 10 µM) of 20.9%. For the same compound, the viability, T/C [7] was 8.94%, the viability, T/C [8] was 5.54% and the viability, T/C (second compound 1 µM, first compound 0.316 µM) was 6.13%. It also gave a viability, T/C (second compound 1 µM, first compound 1 µM) of 3.31%, a viability, T/C (second compound 1 µM, first compound 3.16 µM) of 1.46% and a viability, T/C (second compound 1 µM, first compound 10 µM) of 1.42%. It also gave a viability, T/C [9] of 0.74%, a viability, T/C [10] of 0.78% and a viability, T/C (second compound 3.16 µM, first compound 0.316 µM) of 0.83%. For the same compound, the viability, T/C (second compound 3.16 µM, first compound 1 µM) was 2.18%, the viability, T/C (second compound 3.16 µM, first compound 3.16 µM) was 1.99% and the viability, T/C (second compound 3.16 µM, first compound 10 µM) was 1.71%. It also gave a viability, T/C [11] of 0.41%, a viability, T/C [12] of 1.24% and a viability, T/C (second compound 10 µM, first compound 0.316 µM) of 1.06%. For the same compound, the viability, T/C (second compound 10 µM, first compound 1 µM) was 0.6%, the viability, T/C (second compound 10 µM, first compound 3.16 µM) was 0.7% and the viability, T/C (second compound 10 µM, first compound 10 µM) was 1.88%.

From PubChem BioAssay AID2060600 (Molecular Pharmacology Branch, DTP, NCI, 2025)
